Results published in patent US20070207201A1, “Liquid and Semi-Solid Pharmaceutical Formulations and Processes” (Wyeth, priority 2006, published 2007).
One block for each compound: values may come before it.

Columns and labels:
Assay type in all cases: physicochemical
[1] = Water solubility of the two crystal forms; details: for solubility: water, thermodynamic from solid
[2] = Dynamic vapor sorption (hygroscopicity) of the two crystal forms; details: for DVS weight gain: 0–90% RH
Source text: Dynamic Vapor Sorption (Allentown, Pa.) was used to measure the hygroscopicity of the anhydrate and monohydrate of the invention (see FIGS. 6 and 7). The step conditions were three hours each at 0%, 30%, 52.5%, 75% and 90% RH, two full cycles.

[3] = Stability studies of the two crystal forms (crystal form by XRPD/TGA); details: for Long term stability of crystal form (XRPD and TGA): non-micronized, three months
Description: Samples of monohydrate were stored at room temperature, 56° C., and 70° C. for one week. At room temperature, humidity was maintained at 0% RH. Humidity was not controlled for the higher temperatures.
The samples were analyzed by XRPD and TGA.
(§1) Non-micronized samples of monohydrate and anhydrate were stored at 40° C./75% RH for three months. The monohydrate was also stored at 40° C. without humidity control. During the three months, the samples were checked after two weeks, one month, two months, and three months.

[4] = Chemical stability of the crystal forms on storage (HPLC); details: non-micronized, 40° C./75% RH (monohydrate also 40° C. without humidity control), three months
Description: as §1

[5] = Stability studies of the two crystal forms (crystal form by XRPD/TGA)

solubility ([1]; pH 7.29, water): 10 µg/mL | solubility ([1]; pH 7.7, water, pH 7.70): 12.8 µg/mL | Hygroscopicity (from DVS data) [2]: largely non-hygroscopic | DVS weight gain [2]: 0.2% gain (0–90% | Long term stability of crystal form (XRPD and TGA) ([3]; 40° C./75% RH): did not transform | Long term chemical stability (HPLC) [4]: chemically stable | Long term stability of crystal form (XRPD) ([5]; micronized, 25° C./60% RH, three months): did not transform to the monohydrate | Long term stability of crystal form (XRPD) ([5]; micronized, 40° C./75% RH, after one month): partially transform to the monohydrate | Long term stability of crystal form (XRPD) ([5]; non-micronized, 40° C./75% RH, separate study): did not show any obvious transformation
SMILES: C=Cc1cc(O)cc2nc(-c3ccc(O)c(F)c3)oc12 [Anhydrate, 2-(3-fluoro-4-hydroxyphenyl)-7-vinyl-1,3-benzoxazol-5-ol]

solubility ([1]; pH 7.11, water): 2.34 µg/mL | solubility ([1]; pH 7.51, water): 2.21 µg/mL | Hygroscopicity (from DVS data) [2]: largely non-hygroscopic | DVS weight gain [2]: 0.1% gain (0–90% RH) | Medium term stability of crystal form (XRPD and TGA) ([3]; 56° C., humidity not controlled, one week): no obvious dehydration | Medium term stability of crystal form (XRPD and TGA) ([3]; 70° C., humidity not controlled, after 1 day): no obvious hydration | Medium term stability of crystal form (XRPD and TGA) ([3]; 70° C., humidity not controlled, after 4 days): partially dehydrated | Medium term stability of crystal form (XRPD and TGA) ([3]; 70° C., humidity not controlled, after 7 days): mostly dehydrated | Long term stability of crystal form (XRPD and TGA) ([3]; 40° C. without humidity control): did not transform | Long term stability of crystal form (XRPD and TGA) ([3]; 40° C./75% RH): did not transform | Medium term stability of crystal form (XRPD and TGA) ([3]; room temperature, 0% RH, one week): no obvious dehydration | Long term chemical stability (HPLC) [4]: chemically stable | Short term stability of crystal form (XRPD) ([5]; 70° C. for one hour): stable | Short term stability of crystal form (XRPD) ([5]; 90° C. after one half hour): partially dehydrated | Short term stability of crystal form (XRPD) ([5]; 90° C. after one hour): completely dehydrated
SMILES: C=Cc1cc(O)cc2nc(-c3ccc(O)c(F)c3)oc12 [Monohydrate, 2-(3-fluoro-4-hydroxyphenyl)-7-vinyl-1,3-benzoxazol-5-ol]
Water solubility compared between the two forms [1]: significantly lower solubility than the anhydrate
